Data reported in US20180310564A1, “Mesoionic Compound” (Nippon Kayaku Kabushiki Kaisha, priority 2015, published 2018).
Structures can show the parent of a compound that is named as a salt.

How the values were obtained:
Format in all cases: in vivo
[1] = tested on: Cotton Aphid (Aphis gossypii); experiment: Test (foliar spraying) for controlling cotton aphid; details: 120 h, 5 days after treatment; for mortality at 200 ppm: foliar spraying on cucumber leaf
Protocol: A cucumber leaf cut to a diameter of 3.5 cm was placed on cotton wool moistened with water. Two adult cotton aphids were released there for offspring for 24 hours and the adult insects were then removed. […] After air-drying, the sample with cotton wool was placed in a plastic cup, which was covered with a lid and kept in a chamber at a constant temperature of 25° C. for rearing.

[2] = tested on: Sweetpotato whitefly (Bemisia tabaci); experiment: Test (foliar spraying) for controlling sweetpotato whitefly; details: 120 h, foliar spraying on cucumber leaf, female adults, 5 days after treatment
Protocol: A cucumber leaf cut to a diameter of 6.0 cm was placed on cotton wool moistened with water. The diluent of the test compounds diluted to 200 ppm in an amount of 2 mL was sprayed onto the cucumber leaves with a spray tower. After air-drying, the cucumber leaf was placed in a plastic cup, and 20 female adult sweetpotato whiteflies were released there. The cup was covered with a lid and kept in a chamber at a constant temperature of 25° C. for rearing.

[3] = tested on: Diamondback Moth (Plutella xylostella); experiment: Test (foliar dipping) for controlling diamondback moth; details: 72 h, foliar dipping of cabbage leaf, third instar larvae, 3 days after treatment
Protocol: A cabbage leaf cut to a diameter of 5.0 cm was dipped in the diluent of the test compounds diluted to 200 ppm in an amount of 20 mL and air-dried. After air-drying, the cabbage leaf was placed in a plastic cup, and 10 larvae of diamondback moths in the third instar larva were released there. The cup was covered with a lid and kept in a chamber at a constant temperature of 25° C. for rearing.

[4] = tested on: Brown Planthopper (Nilaparvata lugens); experiment: Test (foliar dipping) for controlling brown planthopper; details: 120 h, rice seedlings dipped, 5 days after treatment; for mortality at 200 ppm: third instar larvae
Protocol: […] After air-drying, the rice seedlings held with urethane in a glass cylinder having an inner diameter of 4.5 cm and a length of 14 cm were set up in a plastic cup containing 40 mL of water. Larvae of brown planthoppers in the third instar larva were released there. The cylinder was covered with a lid of medicine paper and kept in a chamber at a constant temperature of 25° C. for rearing.

[5] = tested on: Southern Yellow thrips (Thrips palmi); experiment: Test (foliar spraying) for controlling southern yellow thrips; details: 72 h; 200 ppm, foliar spraying on cucumber leaf, first instar larvae, 3 days after treatment
Protocol: A cucumber leaf cut to a diameter of 1.5 cm was placed on cotton wool moistened with water. […] After air-drying, 5 larvae of southern yellow thrips in the first instar larva were released there. The sample with cotton wool was placed in a plastic cup, which was covered with a lid and kept in a chamber at a constant temperature of 25° C. for rearing.

[6] = tested on: Rice Leaf Beetle (Oulema oryzae); experiment: Test (root dipping) for controlling rice leaf beetle; details: 4 days after treatment; for mortality at 1.6 ppm: root dipping of rice seedlings, late instar larvae released after 2 days
Protocol: (§1) Ten sampled rice seedlings held with urethane in a glass cylinder having an inner diameter of 4.5 cm and a length of 14 cm were set up in a plastic cup containing 40 mL of chemical solution diluted to a desired concentration. After 2 days, 4 larvae of rice leaf beetle in the late instar larva were released in the glass cylinder. The glass cylinder was covered with a lid of medicine paper and kept in a chamber at a constant temperature of 25° C. for rearing.

[7] = tested on: Rice Stem Borer (Chilo suppressalis); experiment: Test (pot test) for controlling rice stem borer; details: 14 days after treatment; for Browning stem ratio (%): 500 g/ha as wettable powder (Formulation Example 2) at rice roots, hatchlings released after 4 days; for Ratio to untreated (%): browning stem ratio relative to untreated, 500 g/ha
Protocol: The roots of five sampled rice seedlings were washed with water. The wettable powder prepared in accordance with Formulation Example 2 described above was wrapped in the roots to be planted in a Wagner pot of 1/10000 a. After 4 days from the treatment, a total of […] of rice stem borer were released per strain and reared in a plastic greenhouse with a room temperature set at 25° C. On 14 days after the treatment, the ratio of browning stem of seedlings for each strain and the ratio to untreated ones were calculated. Double system.

[8] = tested on: Inedorooimushi (Oulema oryzae); experiment: Test (pot test) for controlling inedorooimushi; details: larvae released 20 days after treatment, 2 days after release; for mortality at 500 g/ha: 500 g/ha as wettable powder at rice roots
Protocol: The roots of five sampled rice seedlings were washed with water. The wettable powder prepared in accordance with Formulation Example 2 described above was wrapped in the roots to be planted in a Wagner pot of 1/10000 a. After 20 days from the treatment, 3 larvae of inedorooimushi in the late instar larva were released per strain and reared in a plastic greenhouse with a room temperature set at 25° C. On 2 days after the releasing of the insects, the mortality of the insect was calculated.

[9] = tested on: Brown Planthopper (Nilaparvata lugens); experiment: Residual effect test (field experiment) for brown planthopper
Protocol: The roots of five sampled rice seedlings were washed with water. Subsequently, 25 mg of the wettable powder prepared in accordance with Formulation Example 2 described above was wrapped in the roots. Each strain was made from the five seedlings. In outdoor artificial paddy fields made from wooden frames having a size of 60 cm by 90 cm, 10 strains were planted, respectively. The artificial paddy field was shielded by an insect screen with a mesh size of 1 mm, so that invasion of harmful insects from the outside was prevented. Into the test system, 40 to 100 adult brown planthoppers were released at fixed intervals so as to cause damage to the rice. On 16 to 51 days after the treatment, the numbers of surviving insects and dead insects were measured to calculate the density index. The density index was obtained from the following expression.

[10] = tested on: Brown Winged Green Stink Bug (Plautia stali); experiment: Test (greenhouse test) for controlling brown winged green stink bug; details: 100 ppm sprayed on apple fruit; for Number of abnormal insects / Number of dead insects / Number of normal insects: 5 adults released 7 days after treatment, triple system, 4 days after release; for Total number of sheaths formed by stylet insertion: fruit stained with fuchsine after examination; for Proportion of abnormal insects and dead insects on 4 days after releasing insects (%): insects released 7 days after treatment
Protocol: Using a commercially available hand spray, a chemical solution diluted to a concentration of 100 ppm was sprayed onto an apple fruit (cultivar: Fuji). After air-drying, the apple fruit was placed in a plastic cup, which was allowed to stand still for a specified number of […] in a plastic greenhouse with a room temperature set at 25° C. and with the natural light shining thereon. On 7 days after the treatment, 5 adult brown winged green stink bugs (without distinction between male and female) were released onto the treated fruit. On 4 days after the release of insects, the numbers of death and abnormality were observed and recorded. Triple system. Also, the fruit after examination was immersed in an acidic 0.5% fuchsine solution for 30 minutes, and then washed with water to measure the total number of sapping scars.

[11] = tested on: Brown Planthopper (Nilaparvata lugens); experiment: Test (root dipping) for controlling brown planthopper; details: 120 h, root dipping, 5 days after treatment
Protocol: as §1, with “days, 10” for “days, 4”, “of brown planthoppers” for “of rice leaf beetle”, “the third” for “the late”

[12] = After 16 days, 25 mg wettable powder (Formulation Example 2) at roots per strain, outdoor artificial paddy field
[13] = After 23 days, 25 mg wettable powder at roots per strain, artificial paddy field
[14] = After 30 days, 25 mg wettable powder at roots per strain, artificial paddy field
[15] = After 37 days, 25 mg wettable powder at roots per strain, artificial paddy field
[16] = After 44 days, 25 mg wettable powder at roots per strain, artificial paddy field
[17] = After 51 days, 25 mg wettable powder at roots per strain, artificial paddy field

SMILES	mortality at 200 ppm [1] [%]	mortality at 200 ppm [2] [%]	mortality at 200 ppm [3] [%]	mortality at 0.01 ppm [4] [%]	mortality at 0.02 ppm [4] [%]	mortality at 0.05 ppm [4] [%]	mortality at 200 ppm [4] [%]	mortality at 0.8 ppm ([1]; foliar spraying) [%]	mortality at 200 ppm [5] [%]	mortality at 1.6 ppm [6] [%]	mortality at 0.8 ppm ([6]; 96 h, root dipping) [%]	Browning stem ratio (%) [7] [%]	Ratio to untreated (%) [7] [%]	mortality at 125 g/ha [8] [%]	Density index of Nilaparvata lugens [9, 12]	Density index of Nilaparvata lugens [9, 13]	Density index of Nilaparvata lugens [9, 14]	Density index of Nilaparvata lugens [9, 15]	Density index of Nilaparvata lugens [9, 16]	Density index of Nilaparvata lugens [9, 17]	also measured
N#CCC[n+]1c(O)c(-c2cccc(C(F)F)c2)c(=O)n2ccccc21 [Compound 48, 1-(2-cyanoethyl)-3-(3-difluoromethylphenyl)-2-hydroxy-4-oxo-4H-pyrido[1,2-a]pyrimidinium inner salt]	≥ 80	≥ 80	≥ 80	0	20	100	≥ 80														
N#CCC[n+]1c([O-])c(-c2cccc(C(F)(F)F)c2)c(=O)n2ccccc21 [Compound 51, 1-(2-cyanoethyl)-2-hydroxy-4-oxo-3-(3-trifluoromethylphenyl)-4H-pyrido[1,2-a]pyrimidinium inner salt]	≥ 80		≥ 80				≥ 80	100	≥ 80	100	100	10	12	83.3	0	2.6	21.7	43.1	37.1	76.2	mortality at 0.1 ppm ([1]; 0.1 ppm, foliar spraying): 100%; mortality at 0.4 ppm ([6]; 96 h, 0.4 ppm, root dipping): 100%; mortality at 250 g/ha [8]: 100%; mortality at 500 g/ha [8]: 100%; Number of abnormal insects [10]: 7; Number of dead insects [10]: 8; Number of normal insects [10]: 0; Total number of sheaths formed by stylet insertion [10]: 1; Proportion of abnormal insects and dead insects on 4 days after releasing insects (%) [10]: 100%
N#CCC[n+]1c([O-])c(-c2cccc(OC(F)(F)F)c2)c(=O)n2ccccc21 [Compound 57, 1-(2-cyanoethyl)-2-hydroxy-4-oxo-3-(3-trifluoromethoxyphenyl)-4H-pyrido[1,2-a]pyrimidinium inner salt]	≥ 80		≥ 80				≥ 80		≥ 80			0	0		0	0	25.4	50.4	33.0	80.7	
Cc1cccc(-c2c([O-])[n+](CCC#N)c3ccccn3c2=O)c1 [Compound 3, 1-(2-cyanoethyl)-2-hydroxy-4-oxo-3-(3-toluyl)-4H-pyrido[1,2-a]pyrimidinium inner salt]	≥ 80	≥ 80	≥ 80	10	40	80	≥ 80	100	≥ 80	100	100	0	0	33.3	7.7	0	28.4	23.8	13.0	88.5	mortality at 0.025 ppm ([11]; 0.025 ppm): 50%; mortality at 0.05 ppm ([11]; 0.05 ppm): 60%; mortality at 0.1 ppm ([11]; 0.1 ppm): 100%; mortality at 250 g/ha [8]: 50%; mortality at 500 g/ha [8]: 100%; Number of abnormal insects [10]: 7; Number of dead insects [10]: 6; Number of normal insects [10]: 2; Total number of sheaths formed by stylet insertion [10]: 5; Proportion of abnormal insects and dead insects on 4 days after releasing insects (%) [10]: 86.7%
